According to ChEMBL document CHEMBL3045353, “Identification of new limonoids from Swietenia and their biological activity against insects” (Pest Manag Sci, 2010):
In brackets after ≈: the same amount, converted by molar mass.

How the values were obtained:
[1] = test system: Manduca sexta; assay: Growth inhibition of neonate larvae of Manduca sexta at 250 mg/l after 6 days relative to control; type: functional; details: 144 h, read-out: GI
[2] = test system: Heliothis virescens; assay: Growth inhibition of neonate larvae of Heliothis virescens (tobacco budworm) at 250 mg/l after 6 days relative to control; type: functional; details: 144 h, read-out: GI
[3] = test system: Helicoverpa zea; assay: Growth inhibition of neonate larvae of Helicoverpa zea (corn earworm)at 250 mg/l after 6 days relative to control; type: functional; details: 144 h, read-out: GI
[4] = test system: Spodoptera frugiperda; assay: Antifeedant activity against fourth-instar larvae of Spodoptera frugiperda (fall armyworm) fed on compound treated savanna grass for 18 hr; type: functional, organism-based
[5] = test system: Spodoptera frugiperda; assay: Phagostimulant activity in fourth-instar larvae of Spodoptera frugiperda (fall armyworm) fed on compound treated savanna grass for 18 hr; type: ADME, organism-based; details: in vivo, po

Row | SMILES | inhibition of growth at 250 µg/mL [1] [%] | inhibition of growth at 250 µg/mL [2] [%] | inhibition of growth at 250 µg/mL [3] [%] | DC50 [4] [µg/mL] | Activity [5]
1 | COC(=O)[C@H](C(=O)Oc1ccccc1)[C@H]1C(C)(C)[C@H](O)[C@@H]2CC3=C4CC(=O)O[C@@H](c5ccoc5)[C@]4(C)CC[C@@H]3[C@@]1(C)C2=O [6-O-BENZOYLSWIETENOLIDE] | 43.8 | 27.1 | 39.5 | 73.2 (≈ 124 µM) | 
2 | CC1(C)[C@H]([C@@H](O)C(=O)O)[C@]2(C)C(=O)[C@@](O)(C=C3[C@@H]4CC(=O)O[C@@H](c5ccoc5)[C@]4(C)CC[C@@H]32)[C@H]1O [DEMETHYL-3-DETIGLOYL-2-HYDROXYISOSWIETENINE] | 13.2 | 24.5 | 11.1 | > 10000 | 
3 | COC(=O)[C@H](O)[C@H]1C(C)(C)[C@H](C(=O)Oc2ccccc2)[C@@H]2CC3=C4CC(=O)O[C@@H](c5ccoc5)[C@]4(C)CC[C@@H]3[C@@]1(C)C2=O [3-O-BENZOYLSWIETENOLIDE] |  |  |  | 244 (≈ 414 µM) | 
4 | C/C=C(\C)OC(=O)[C@@H]1[C@@H]2C=C3[C@@H]4CC(=O)O[C@@H](c5ccoc5)[C@]4(C)CC[C@@H]3[C@@](C)(C2=O)[C@@H]([C@H](C(=O)OC)C(=O)Oc2ccccc2)C1(C)C [6-O-BENZOYLSWIETENINE] | 32.8 | 28.7 | 10.2 | 406 (≈ 604 µM) | 
5 | COC(=O)COC(=O)[C@@H]1[C@@H]2CC3=C4CC(=O)O[C@@H](c5ccoc5)[C@]4(C)CC[C@@H]3[C@@](C)(C2=O)[C@@H]([C@@H](O)C(=O)OC)C1(C)C [3-O-ACETOXYACETYLSWIETENOLIDE] | 35.9 | 19 | 30.2 | 12.4 (≈ 21.1 µM) | 
6 | COC(=O)[C@H](O)[C@H]1C(C)(C)[C@H](C(=O)OCC(C)C)[C@@H]2CC3=C4CC(=O)O[C@@H](c5ccoc5)[C@]4(C)CC[C@@H]3[C@@]1(C)C2=O [3-O-ISOVALERYLSWIETENOLIDE] | 23.7 | 54.5 | 26.2 | 0.19 (≈ 0.333 µM) | 
7 | CC1(C)[C@H](O)[C@@H]2CC3=C4CC(=O)O[C@@H](c5ccoc5)[C@]4(C)CC[C@@H]3[C@@](C)(C2=O)[C@H]1[C@@H](O)C(=O)OO [DEMETHYLISOSWIETENOLIDE] | 9.01 | 32.6 | 24 | 254 (≈ 520 µM) | 
8 | CCOC(=O)[C@@H]1[C@@H]2CC3=C4CC(=O)O[C@@H](c5ccoc5)[C@]4(C)CC[C@@H]3[C@@](C)(C2=O)[C@@H]([C@@H](O)C(=O)OC)C1(C)C [3-O-PROPIONYLSWIETENOLIDE] | 18.3 | 41.7 | 16.6 | 53.8 (≈ 99.1 µM) | 
9 | CCOC(=O)[C@@H](C(=O)OC)[C@H]1C(C)(C)[C@H](O)[C@@H]2CC3=C4CC(=O)O[C@@H](c5ccoc5)[C@]4(C)CC[C@@H]3[C@@]1(C)C2=O [6-O-PROPIONYLSWIETENOLIDE] | 21.4 | 62.6 | 27.1 | 57.1 (≈ 105 µM) | 
10 | CCOC(=O)[C@@H](C(=O)OC)[C@H]1C(C)(C)[C@H](C(=O)OCC)[C@]2(O)C=C3[C@@H]4CC(=O)O[C@@H](c5ccoc5)[C@]4(C)CC[C@@H]3[C@@]1(C)C2=O [3,6-O,O-DIPROPIONYL-3-DETIGLOYL-2-HYDROXYISOSWIETENINE] | 15.8 | 17.5 | 32.7 | 159 (≈ 259 µM) | 
11 | C/C=C(\C)OC(=O)[C@H]1C(C)(C)[C@H]([C@@H](O)C(=O)OC)[C@]2(C)C(=O)[C@@]1(O)C=C1[C@@H]3CC(=O)O[C@@H](c4ccoc4)[C@]3(C)CC[C@@H]12 [2-HYDROXYSWIETENINE] | 31.7 | 62.6 | 28.2 | 65.8 (≈ 113 µM) | 
12 | COC(=O)[C@H](O)[C@H]1C(C)(C)[C@H](C(=O)OC(C)C)[C@@H]2CC3=C4CC(=O)O[C@@H](c5ccoc5)[C@]4(C)CC[C@@H]3[C@@]1(C)C2=O [3-O-ISOBUTYRYLSWIETENOLIDE] | 45.9 | 35.1 | 33.1 | 0.009 (≈ 0.0162 µM) | 
13 | COC(=O)[C@H](C(=O)Oc1ccccc1)[C@H]1C(C)(C)[C@H](C(=O)Oc2ccccc2)[C@@H]2C=C3[C@@H]4CC(=O)O[C@@H](c5ccoc5)[C@]4(C)CC[C@@H]3[C@@]1(C)C2=O [3,6-O,O-DIBENZOYL-3-DETIGLOYLISOSWIETENINE] | 25.7 | 18.6 | 49.2 |  | Toxic
14 | COC(=O)[C@H](O)[C@H]1C(C)(C)[C@H](O)[C@@H]2C=C3[C@@H]4CC(=O)O[C@@H](c5ccoc5)[C@]4(C)CC[C@@H]3[C@@]1(C)C2=O [3-DETIGLOYLISOSWIETENINE] | 17.8 | 56 | 15.2 | 101 (≈ 208 µM) | 
15 | C/C=C(\C)OC(=O)[C@H]1[C@@H]2C(=O)[C@](C)([C@H]3CC[C@]4(C)[C@@H](CC(=O)O[C@H]4c4ccoc4)[C@]34O[C@@H]24)[C@@H](C(O)C(=O)OC)C1(C)C (stereo partly specified) [SWIETEMAHONIN G] | 32.8 | 44.3 | 48.1 | 13.8 (≈ 23.6 µM) | 
16 | COC(=O)[C@H](C(=O)Oc1ccccc1)[C@H]1C(C)(C)[C@H](C(=O)Oc2ccccc2)[C@@H]2CC3=C4CC(=O)O[C@@H](c5ccoc5)[C@]4(C)CC[C@@H]3[C@@]1(C)C2=O [3,6-O,O-DIBENZOYLSWIETENOLIDE] |  |  |  | 416 (≈ 599 µM) | 
17 | CCOC(=O)[C@@H]1[C@@H]2C=C3[C@@H]4CC(=O)O[C@@H](c5ccoc5)[C@]4(C)CC[C@@H]3[C@@](C)(C2=O)[C@@H]([C@@H](O)C(=O)OC)C1(C)C [3-O-PROPIONYL-3-DETIGLOYLISOSWIETENINE] | 12.5 | 32 | 13.5 | 81.9 (≈ 151 µM) | 
18 | COC(=O)[C@H](O)[C@H]1C(C)(C)[C@H](C(=O)Oc2ccccc2)[C@@H]2C=C3[C@@H]4CC(=O)O[C@@H](c5ccoc5)[C@]4(C)CC[C@@H]3[C@@]1(C)C2=O [3-O-BENZOYL-3-DETIGLOYLISOSWIETENINE] | 8.18 | 57.8 | 27.1 | 254 (≈ 430 µM) | 
19 | CCOC(=O)[C@@H](C(=O)OC)[C@H]1C(C)(C)[C@H](C(=O)OCC)[C@@H]2CC3=C4CC(=O)O[C@@H](c5ccoc5)[C@]4(C)CC[C@@H]3[C@@]1(C)C2=O [O,O-DIPROPIONYLSWIETENOLIDE] | 32.7 | 52.7 | 20.8 | 45.5 (≈ 76 µM) | 
20 | COC(=O)[C@H](O)[C@H]1C(C)(C)[C@H](O)[C@]2(O)C=C3[C@@H]4CC(=O)O[C@@H](c5ccoc5)[C@]4(C)CC[C@@H]3[C@@]1(C)C2=O [3-DETIGLOYL-2-HYDROXYISOSWIETENINE] | 29.2 | 15.8 | 22.4 | 188 (≈ 374 µM) | 
21 | COC(=O)[C@H](C(=O)Oc1ccccc1)[C@H]1C(C)(C)[C@H](C(=O)Oc2ccccc2)[C@]2(O)C=C3[C@@H]4CC(=O)O[C@@H](c5ccoc5)[C@]4(C)CC[C@@H]3[C@@]1(C)C2=O [3,6-O,ODIBENZOYL-3-DETIGLOYL-2-HYDROXYISOSWIETENINE] | 6.24 | 33.8 | 13.5 | 233 (≈ 328 µM) | 
22 | CC1(C)[C@H](O)[C@@H]2C=C3[C@@H]4CC(=O)O[C@@H](c5ccoc5)[C@]4(C)CC[C@@H]3[C@@](C)(C2=O)[C@H]1[C@@H](O)C(=O)O [DEMETHYL-3-DETIGLOYLISOSWIETENINE] | 14.1 | 10.2 | 21.6 | 214 (≈ 454 µM) | 
23 | COC(=O)C(O)[C@H]1C(C)(C)[C@@H](O)[C@@H]2C(=O)[C@]1(C)[C@H]1CC[C@]3(C)[C@@H](CC(=O)O[C@H]3c3ccoc3)[C@]13O[C@@H]23 (stereo partly specified) [3-DETIGLOYLISOSWIETEMAHONIN G] | 45.1 | 49.1 | 54.6 | 107 (≈ 213 µM) | 
